Assay results from patent US20250017921A1, “PHARMACEUTICAL COMBINATION AND TUMOR TREATMENT” (IDEAYA Biosciences Inc., priority 2020, published 2025).

Assays:
MEL-202 cells = assay: Cell Titer-Glo cell viability, MEL-202 cells; format: cell-based, human
Procedure: (§1) Luminescence was read using a plate reader (TECAN). Average luminescence of cells treated with DMSO was set to 100% and the % viable cells were calculated accordingly. Synergy/antagonism was analyzed using Combenefit software. […] Interactions between various combinations were evaluated using Bliss, HSA, and Loewe synergy/antagonism models. […] Cell viability was measured by CTG three days/five days after treatment.
(§2) After 24 hrs, the media was changed to 2% FBS/RPMI media. Further, the cell lines were screened for sensitivity to the PKC inhibitor, IDE196 alone or in combination with Hepatocyte growth factor (HGF) (Peprotech); at increasing doses according to Table 1 using a TECAN digital dispenser.

92.1 cells = assay: Cell Titer-Glo cell viability, 92.1 cells; format: cell-based, human
Procedure: as §1, §2

MM28 cells = assay: Cell Titer-Glo cell viability, MM28 cells; format: cell-based, human
Procedure: as §1, §2

[1] = tested on: cMET, MAPK, PI3K and PKC signaling pathways in MEL-202 cells; assay: Pharmacodynamic western blot, MEL-202 cells; format: cell-based, human
Procedure: (§3) For all experiments, cells were seeded 24 h before treatment at 2.5×10^6 cells in 10 cm^2 tissue culture plates in 10% RPMI media. For IDE196-HGF combinations, cells were treated with the IDE196 and HGF combinations in 2% RPMI media for 2 hrs according to Table 3. For IDE196-MET inhibitor experiments, 24 h after seeding, the media was replaced with the appropriate inhibitor combinations in 2% RPMI media in the presence of 1.23-3.7 ng/ml HGF for 2 h, according to Table 4.
(§4) For all experiments, cells were washed with ice cold PBS and protein lysates were prepared by lysing cells in a RIPA buffer containing protease and phosphatase inhibitors. Protein samples (15ug/well) were separated on 4-20% Bis-Tris SDS gels and electroblotted to nitrocellulose membranes using iBlot (Invitrogen). The membranes were incubated for 1b in Superblock buffer at RT, followed by overnight incubation with primary antibody at 4° C. The primary antibodies Phospho-Met (Tyr1234/1235) (3077S), cMET (3148S), Phospho-Akt (Ser473) (4060S), Akt (pan) (2920S), Phospho-MARCKS (Ser159/163) (11992S), MARCKS (5607S), PKCδ (9616S), Phospho-p44/42 MAPK (ERK1/2) (Thr202/Tyr204) (4377S), pRAS40 were obtained from Cell Signaling. Total ERK (ab184699) and PKC delta (phospho S299) (ab133456) antibodies were from Abcam. After three washes in PBST, the membrane was incubated with HRP-conjugated secondary antibody for 1 h at RT, washed thrice in PBST, and detected using enhanced chemiluminescence (Biorad Chemidoc XRS).

[2] = tested on: cMET, MAPK, PI3K and PKC signaling pathways in 92.1 cells; assay: Pharmacodynamic western blot, 92.1 cells; format: cell-based, human
Procedure: as §3, §4

[3] = tested on: cMET, MAPK, PI3K and PKC signaling pathways in MM28 cells; assay: Pharmacodynamic western blot, MM28 cells; format: cell-based, human
Procedure: as §3, §4

[4] = patient; cited from earlier work
[5] = presence of HGF, IDE196 alone and in combination with crizotinib
[6] = presence of HGF, IDE196 alone, up to highest concentrations
[7] = presence of HGF, crizotinib alone or in combination with IDE196
[8] = at or above 3.7 ng/mL HGF, all concentrations of IDE196, HSA, Loewe, Bliss
[9] = dose-dependent, not inhibited by addition of IDE196

CC1(N)CCN(c2cccnc2NC(=O)c2nc(-c3ncccc3C(F)(F)F)cnc2N)CC1 [IDE196, 3-amino-N-(3-(4-amino-4-methylpiperidin-1-yl)pyridin-2-yl)-6-(3-(trifluoromethyl)pyridin-2-yl)pyrazine-2-carboxamide]
EC50 (MEL-202 cells; Homo sapiens, Mel202, 72 h, IDE196 alone, day 3, N=3, read-out: inhibition of cell viability EC50): 250 nM
EC50 (92.1 cells; Homo sapiens, 72 h, IDE196 alone, day 3, N=3, read-out: inhibition of cell viability EC50): 113 nM
EC50 (MM28 cells; Homo sapiens, 120 h, IDE196 alone, day 5, N=3, read-out: inhibition of cell viability EC50): 342 nM
pMARCKS and pPKC-delta ([1]; IDE196 treatment alone): dose-dependent decrease
dose at which pERK was inhibited ([1]; absence of HGF, 2 h): above 400 nM
effect on pAKT or pPRAS40 ([1]; presence of HGF, IDE196 alone): no effect
pMARCKS or pPKCδ [1, 5]: dose-dependent decrease
pERK inhibition [1, 6]: did not inhibit
pMARCKS and pPKC-delta ([2]; IDE196 treatment alone): dose-dependent decrease
dose at which pERK was inhibited ([2]; absence of HGF, 2 h): above 400 nM
effect on pAKT or pPRAS40 ([2]; presence of HGF, IDE196 alone): no effect
pMARCKS or pPKCδ [2, 5]: dose-dependent decrease
pERK inhibition [2, 6]: did not inhibit
pMARCKS and pPKC-delta ([3]; IDE196 treatment alone): dose-dependent decrease
dose at which pERK was inhibited ([3]; absence of HGF, 2 h): above 400 nM
effect on pAKT or pPRAS40 ([3]; presence of HGF, IDE196 alone): no effect
pMARCKS or pPKCδ [3, 5]: dose-dependent decrease
pERK inhibition [3, 6]: did not inhibit

CNC(=O)c1ccc(-c2cnc3ncc(Cc4ccc5ncccc5c4)n3n2)cc1F [capmatinib, reference compound]
synergy with IDE196 on cell viability (MEL-202 cells; 1.23 ng/ml HGF, all doses of capmatinib, starting at 80 nM IDE196): high synergy
synergy with IDE196 on cell viability (92.1 cells; 1.23 ng/ml HGF, capmatinib, any dose combination): did not synergize
synergy with IDE196 on cell viability (MM28 cells; 1.23 ng/ml HGF, capmatinib, all the doses): high synergy
half-life [4]: about 6.5 hours

C[C@@H](Oc1cc(-c2cnn(C3CCNCC3)c2)cnc1N)c1c(Cl)ccc(F)c1Cl [crizotinib, reference compound]
HGF induced pMET, pERK, pAKT and pPRAS40 levels [1, 7]: strongly inhibited
pERK, pAKT and pPRAS40 ([2]; presence of HGF, higher concentrations of crizotinib alone or in combination with IDE196): modest decrease
HGF induced pMET, pERK, pAKT and pPRAS40 levels [3, 7]: strongly inhibited

HGF: Hepatocyte growth factor (Peprotech), the endogenous ligand for the extracellular cMET receptor
cell viability on exposure to exogeneous HGF (MEL-202 cells; HGF alone): increased cell viability significantly
antagonism of IDE196 induced growth inhibition by HGF (MEL-202 cells; [8]): high antagonism
antagonism of IDE196 induced growth inhibition by HGF (92.1 cells; 1.23 to 33.33 ng/ml HGF, HSA, Loewe, Bliss): modest antagonism
cell viability on exposure to exogeneous HGF (92.1 cells; HGF alone): not
cell viability on exposure to exogeneous HGF (MM28 cells; HGF alone): increased cell viability significantly
antagonism of IDE196 induced growth inhibition by HGF (MM28 cells; [8]): high antagonism
pERK (MAPK signaling), pAKT and pPRAS40 (PI3K signaling) on addition of HGF [1, 9]: induced
pERK (MAPK signaling), pAKT and pPRAS40 (PI3K signaling) on addition of HGF [2, 9]: induced
pERK (MAPK signaling), pAKT and pPRAS40 (PI3K signaling) on addition of HGF [3, 9]: induced
